From patent US4156724A, “N-acylamino-alpha-arylacetamido cephalosporins and antibacterial compositions and methods containing them” (Sumitomo Chemical Company, Limited, priority 1974, dated 1979)
In brackets after ≈: the same amount, converted by molar mass.

Assays:
Assay type in all cases: cell-based
[1] = tested on: Staphylococcus aureus 209 P; assay: Minimum Inhibitory Concentration, Staphylococcus aureus 209 P; settings: Staphylococcus aureus 209 P; read-out: Minimum Inhibitory Concentration
Procedure: (§1) anti-microbial activity tests were carried out on the compounds obtained in the Examples.

[2] = tested on: Staphylococcus aureus FS 289; assay: Minimum Inhibitory Concentration, Staphylococcus aureus FS 289; settings: FS289; Staphylococcus aureus FS 289, strain resistant to penicillin; read-out: Minimum Inhibitory Concentration
Procedure: as §1
*Staphylococcus aureus FS 289: strain resistant to penicillin

Escherichia coli NIHJ = assay: Minimum Inhibitory Concentration, Escherichia coli NIHJ; settings: Escherichia coli NIHJ; read-out: Minimum Inhibitory Concentration
Procedure: as §1

[3] = tested on: Klebsiella pneumoniae 602; assay: Minimum Inhibitory Concentration, Klebsiella pneumoniae 602; settings: Klebsiella pneumoniae, 602, Klebsiella pneumoniae 602; read-out: Minimum Inhibitory Concentration
Procedure: as §1

Proteus vulgaris HX 19 = assay: Minimum Inhibitory Concentration, Proteus vulgaris HX 19; settings: HX19; Proteus vulgaris HX 19; read-out: Minimum Inhibitory Concentration
Procedure: as §1

[4] = tested on: Pseudomonas aeruginosa 104; assay: Minimum Inhibitory Concentration, Pseudomonas aeruginosa 104; settings: Pseudomonas aeruginosa 104; read-out: Minimum Inhibitory Concentration
Procedure: as §1

Serratia No. 72 = assay: Minimum Inhibitory Concentration, Serratia No. 72
Procedure: as §1

[5] = tested on: Enterobacter aerogeneus No. 75; assay: Minimum Inhibitory Concentration, Enterobacter aerogeneus No. 75; settings: Enterobacter aerogeneus No. 75; read-out: Minimum Inhibitory Concentration
Procedure: as §1

Row | SMILES | MIC [1] [µg/mL] | MIC [2] [µg/mL] | MIC (Escherichia coli NIHJ) [µg/mL] | MIC [3] [µg/mL] | MIC (Proteus vulgaris HX 19) [µg/mL] | MIC [4] [µg/mL] | MIC (Serratia No. 72) [µg/mL] | MIC [5] [µg/mL]
1 | CC(=O)OCC1=C(C(=O)O)N2C(=O)C(NC(=O)C(NC(=O)c3cnc4nc(C)ccc4c3O)c3ccc(CO)cc3)C2SC1 (stereo not drawn) [Example 99] | 1.56 (≈ 2.51 µM) | 6.25 (≈ 10.1 µM) | 6.25 (≈ 10.1 µM) | 6.25 (≈ 10.1 µM) | 0.78 (≈ 1.25 µM) | 12.5 (≈ 20.1 µM) | 50 (≈ 80.4 µM) | 12.5 (≈ 20.1 µM)
2 | Cc1nnc(SCC2=C(C(=O)O)N3C(=O)C(NC(=O)C(NC(=O)c4cncnc4O)c4ccc(N)cc4)C3SC2)s1 (stereo not drawn) [Example 61] | 0.39 (≈ 0.634 µM) | 6.25 (≈ 10.2 µM) | 25 (≈ 40.7 µM) | 12.5 (≈ 20.3 µM) | 0.2 (≈ 0.325 µM) | 6.25 (≈ 10.2 µM) | > 200 | 25 (≈ 40.7 µM)
3 | Cn1nnnc1SCC1=C(C(=O)O)N2C(=O)C(NC(=O)C(NC(=O)c3cnc4ccc(O)nc4c3O)c3cccc(N)c3)C2SC1 (stereo not drawn) [Example 77] | 0.78 (≈ 1.17 µM) | 6.25 (≈ 9.4 µM) | 3.13 (≈ 4.71 µM) | 3.13 (≈ 4.71 µM) | 0.1 (≈ 0.15 µM) | 3.13 (≈ 4.71 µM) | 12.5 (≈ 18.8 µM) | 3.13 (≈ 4.71 µM)
4 | NCc1nnc(SCC2=C(C(=O)O)N3C(=O)C(NC(=O)C(NC(=O)c4cnc5cccnc5c4O)c4cccc(N)c4)C3SC2)s1 (stereo not drawn) [Example 79] | 0.78 (≈ 1.15 µM) | 12.5 (≈ 18.4 µM) | 6.25 (≈ 9.19 µM) | 3.13 (≈ 4.6 µM) | 0.2 (≈ 0.294 µM) | 3.13 (≈ 4.6 µM) | 12.5 (≈ 18.4 µM) | 6.25 (≈ 9.19 µM)
5 | Cn1nnnc1SCC1=C(C(=O)O)N2C(=O)C(NC(=O)C(NC(=O)c3cnc4sccc4c3O)c3ccc(O)cc3)C2SC1 (stereo not drawn) [Example 159] | 0.39 (≈ 0.596 µM) | 12.5 (≈ 19.1 µM) | 6.25 (≈ 9.55 µM) | 3.13 (≈ 4.78 µM) | 0.78 (≈ 1.19 µM) | 6.25 (≈ 9.55 µM) | 50 (≈ 76.4 µM) | 12.5 (≈ 19.1 µM)
6 | CSc1ncc2c(O)c(C(=O)NC(C(=O)NC3C(=O)N4C(C(=O)O)=C(CSc5cnn[nH]5)CSC34)c3cccc(N)c3)cnc2n1 (stereo not drawn) [Example 73] | 0.78 (≈ 1.15 µM) | 6.25 (≈ 9.18 µM) | 6.25 (≈ 9.18 µM) | 3.13 (≈ 4.6 µM) | 0.2 (≈ 0.294 µM) | 6.25 (≈ 9.18 µM) | 25 (≈ 36.7 µM) | 6.25 (≈ 9.18 µM)
7 | CSc1nc(O)c2c(O)c(C(=O)NC(C(=O)NC3C(=O)N4C(C(=O)O)=C(CSc5nnnn5C)CSC34)c3ccc(O)cc3)cnc2n1 (stereo not drawn) [Example 160] | 0.78 (≈ 1.09 µM) | 12.5 (≈ 17.5 µM) | 12.5 (≈ 17.5 µM) | 6.25 (≈ 8.77 µM) | 1.56 (≈ 2.19 µM) | 12.5 (≈ 17.5 µM) | 50 (≈ 70.2 µM) | 12.5 (≈ 17.5 µM)
8 | CC(=O)OCC1=C(C(=O)O)N2C(=O)[C@@H](NC(=O)[C@H](N)c3ccccc3)[C@H]2SC1 [CEG, reference compound] | 1.56 (≈ 3.85 µM) | 12.5 (≈ 30.8 µM) | 12.5 (≈ 30.8 µM) | 3.13 (≈ 7.72 µM) | 12.5 (≈ 30.8 µM) | > 200 | > 200 | 50 (≈ 123 µM)
9 | Cn1nnnc1SCC1=C(C(=O)O)N2C(=O)C(NC(=O)C(NC(=O)c3cnccc3O)c3ccc(CO)cc3)C2SC1 (stereo not drawn) [Example 91] | 0.78 (≈ 1.27 µM) | 6.25 (≈ 10.2 µM) | 12.5 (≈ 20.4 µM) | 12.5 (≈ 20.4 µM) | 0.39 (≈ 0.637 µM) | 12.5 (≈ 20.4 µM) | 50 (≈ 81.6 µM) | 25 (≈ 40.8 µM)
10 | O=C(O)C1=C(CSc2cnn[nH]2)CSC2C(NC(=O)C(NC(=O)c3cnc4cccnc4c3O)c3ccc(CO)cc3)C(=O)N12 (stereo not drawn) [Example 98] | 1.56 (≈ 2.4 µM) | 6.25 (≈ 9.63 µM) | 1.56 (≈ 2.4 µM) | 1.56 (≈ 2.4 µM) | 0.2 (≈ 0.308 µM) | 6.25 (≈ 9.63 µM) | 25 (≈ 38.5 µM) | 6.25 (≈ 9.63 µM)
11 | Cc1nnc(SCC2=C(C(=O)O)N3C(=O)C(NC(=O)C(NC(=O)c4cnccc4O)c4ccc(N)cc4)C3SC2)s1 (stereo not drawn) [Example 56] | 0.39 (≈ 0.635 µM) | 6.25 (≈ 10.2 µM) | 6.25 (≈ 10.2 µM) | 6.25 (≈ 10.2 µM) | 0.1 (≈ 0.163 µM) | 6.25 (≈ 10.2 µM) | 50 (≈ 81.5 µM) | 12.5 (≈ 20.4 µM)
12 | CC(=O)OCC1=C(C(=O)O)N2C(=O)[C@@H](NC(=O)[C@H](NC(=O)c3cnc4nc(C)ccc4c3O)c3ccc(NC(N)=O)cc3)[C@H]2SC1 [Example 8] | 0.78 (≈ 1.2 µM) | 6.25 (≈ 9.62 µM) | 6.25 (≈ 9.62 µM) | 12.5 (≈ 19.2 µM) | 0.39 (≈ 0.6 µM) | 6.25 (≈ 9.62 µM) | 50 (≈ 77 µM) | 12.5 (≈ 19.2 µM)
